| melting point | SMILES |
| --- | --- |
| 176 to 179 °C | CC(=O)N[C@H]1C[S@+]([O-])[C@@H](c2ccccc2)N(c2ccccc2)C1=O [Example 1b, N-[(1S,2S,5R)-1,4-dioxo-2,3-diphenyl-1λ^4,3-thiazinan-5-yl]acetamide] |
| 208 to 209 °C | O=C1c2ccccc2[S+]([O-])C(c2ccccc2)N1c1ccccc1 (centres unmarked) [Example 1c, 2,3-diphenyl-2,3-dihydro-4H-1,3-benzothiazin-4-one 1-oxide] |
| 177 to 179 °C | O=C1c2cccnc2[S+]([O-])C(c2ccccc2)N1c1ccccc1 (centres unmarked) [Example 1d, 2,3-diphenyl-2,3-dihydro-4H-pyrido[3,2-e]-[1,3]thiazin-4-one 1-oxide] |
| 193 to 194 °C | O=C1CC2(CC2)C[S+]([O-])C(c2ccccc2)N1c1ccccc1 (centres unmarked) [Example 1e, 6,7-diphenyl-5λ^4-thia-7-azaspiro[2.6]nonane-5,8-dione] |
| 145 to 148 °C | O=C1CCS(=O)(=O)C(c2ccccc2)N1c1ccccc1 (centres unmarked) [Example 2a, 2,3-diphenyl-2,3,5,6-tetrahydro-4H-1,3-thiazin-4-one 1,1-dioxide] |
| 170 to 194 °C (dec.) | CC(=O)N[C@H]1CS(=O)(=O)[C@@H](c2ccccc2)N(c2ccccc2)C1=O [Example 2b, N-[(2S,5R)-1,1,4-trioxo-2,3-diphenyl-1λ^6,3-thiazinan-5-yl]acetamide] |
| 163 to 165 °C | O=C1c2ccccc2S(=O)(=O)C(c2ccccc2)N1c1ccccc1 (centres unmarked) [Example 2c, 2,3-diphenyl-2,3-dihydro-4H-1,3-benzothiazin-4-one 1,1-dioxide] |
| 186.6 to 187.7 °C (dec.) | O=C1CC2(CC2)CS(=O)(=O)C(c2ccccc2)N1c1ccccc1 (centres unmarked) [Example 2e, 6,7-diphenyl-5?^6-thia-7-azaspiro[2.6]nonane-5,5,8-trione] |

— US20220259165A1, “S-OXIDES OF 2,3-DIARYL-2,3-DIHYDRO-4H-1,3-THIAZIN-4-ONES AND 2,3-DIARYL-1,3-THIAZEPAN-4-ONES AND METHODS FOR MAKING” (The Penn State Research Foundation, priority 2019, published 2022)
